According to PubChem BioAssay AID1963833 (Molecular Pharmacology Branch, DTP, NCI, 2024):

Test system: 883617-216-R-J1-PDC complex spheroid viability
Experiment: Anticancer human tumor 883617-216-R-J1-PDC patient-derived bladder carcinoma cell line growth inhibition [POLQ]
Details: for IC50: curve of first compound; for viability, T/C: stronger effect = lower value
Method: Multicellular complex tumor spheroid response to Polymerase (POL) inhibitors (novobiocin, ART-558, RP6685) in combination with a variety of drugs and investigational agents in selected tumor cell lines
The POL inhibitors (novobiocin, ART-558, and RP6685) were evaluated both individually and in combination with standard of care and investigational anticancer small molecules within a complex spheroid model of solid tumors. . Complex spheroids include a stromal component modeled by human endothelial cells (HUVEC) and fibroblasts modeled by human mesenchymal stem cells (MSCs). The concentration ranges selected for each drug and investigational agent were based upon clinically achievable concentrations if the clinical Cmax of the agent was known.
Compounds. The drugs and investigational agents: novobiocin (NSC847541), ART-558 (NSC835418), RP-6685 (NSC848927), peposertib (NSC802822), ceralasertib (NSC780249), elimusertib (NSC800525), camonsertib (NSC841442), AZD-1390 (NSC803789), olaparib (NSC753686), talazoparib (NSC767125), rucaparib (NSC756644), sotorasib (NSC818433), MRTX-1133 (NSC836407), SN-38 (NSC673596), topotecan (NSC609699), epotoside (NSC141540), doxorubicin (NSC123127), gemcitabine (NSC613327), 5-fluorouracil (NSC19893), paclitaxel (NSC125973), vemurafenib (NSC761431), MSA-2 (NSC828583), SN-011 (NSC837082), adavosertib (NSC754352), prexasertib (NSC758257), carboplatin (NSC241240) and oxaliplatin (NSC266046), were obtained from the National Cancer Institute (NCI) Developmental Therapeutics Program Chemical Repository (21). The FDA-approved anticancer drug set is available from the Developmental Therapeutics Program at https://dtp.cancer.gov/organization/dscb/obtaining/. […] The stock solutions were prepared in dimethyl sulfoxide (DMSO, Sigma-Aldrich, St. Louis, MO, cat. D2650), except for the platinum compounds which were prepared in saline (Quality Biological, Gaithersburg, MD, cat. 114-055-101), at 800-fold the tested concentration and stored at -70 degrees C prior to their use. All drugs and investigational agents were tested over a range starting from a high concentration at or near the clinical Cmax and decreasing in half-log increments. If the clinical Cmax for an agent had not been determined, the highest concentration tested was 10 microM, except for SN-38, which was tested at a high concentration of 1 microM.
Cell Culture. All cells were maintained in an incubator at 37 degrees C and 5% CO2 with 95% humidity. The PDC lines were cultured according to standard operating procedures established by the NCI PDMR (https://pdmr.cancer.gov). Table 3 of the manuscript, lists the cell lines along with the number of the three cell types plated to form the mct-spheroids and media for tumor cell growth. After thawing, all PDC lines, except 997537-175-T-J1-PDC and 415267-285-R-J2-PDC, were cultured in Matrigel-coated flasks prepared with a working solution of 1X Ham's F-12 nutrient mix, without supplementation (Thermo Fisher Scientific, cat. 11765054), 100 U/mL penicillin-streptomycin (Thermo Fisher Scientific, cat. 15140122), and 2.5% Matrigel (Corning Inc., Corning, NY, cat. 354248) for the first three passages. The two PDC lines 997537-175-T-J1-PDC and 415267-285-R-J2-PDC were cultured on uncoated flasks. The 857933-349-R-J2-PDC line was cultured in 6C/Colon 1B media containing advanced DMEM/F-12 (Thermo Fisher Scientific, cat. 12634028), 10 mM HEPES (Thermo Fisher Scientific, cat. 15630080), 1X GlutaMAX supplement (Thermo Fisher Scientific, cat. 35050061), 0.1 mg/mL primocin (InvivoGen, San Diego, CA, cat. ant-pm-2), 10% defined fetal bovine serum, heat inactivated (HyClone Laboratories Inc., Logan, UT, cat. SH30070.03HI), 50% L-WRN conditioned media (ATCC, cat. CRL-3276), 1.25 mM N-Acetyl-L-cysteine (Sigma-Aldrich, cat. A9165), 10 mM nicotinamide (Sigma-Aldrich, cat. N0636), 1X B-27 supplement (Thermo Fisher Scientific, cat. 17504044), 1X N-2 supplement (Thermo Fisher Scientific, cat. […]

[1] = second compound 0.0316 µM, first compound 0.0316 µM
[2] = second compound 0.0316 µM, first compound 0.1 µM
[3] = second compound 0.0316 µM, first compound 0.316 µM
[4] = second compound 0.0316 µM, first compound 1 µM
[5] = second compound 0.0316 µM, first compound 3.16 µM
[6] = second compound 0.0316 µM, first compound 10 µM
[7] = second compound 0.1 µM, first compound 0.0316 µM
[8] = second compound 0.1 µM, first compound 0.1 µM
[9] = second compound 0.1 µM, first compound 0.316 µM
[10] = second compound 0.1 µM, first compound 1 µM
[11] = second compound 0.1 µM, first compound 3.16 µM
[12] = second compound 0.1 µM, first compound 10 µM
[13] = second compound 0.316 µM, first compound 0.0316 µM
[14] = second compound 0.316 µM, first compound 0.1 µM
[15] = second compound 0.316 µM, first compound 0.316 µM
[16] = second compound 0.316 µM, first compound 1 µM
[17] = second compound 0.316 µM, first compound 3.16 µM
[18] = second compound 0.316 µM, first compound 10 µM
[19] = second compound 1 µM, first compound 0.0316 µM
[20] = second compound 1 µM, first compound 0.1 µM
[21] = second compound 1 µM, first compound 0.316 µM
[22] = second compound 1 µM, first compound 1 µM
[23] = second compound 1 µM, first compound 3.16 µM
[24] = second compound 1 µM, first compound 10 µM
[25] = second compound 3.16 µM, first compound 0.0316 µM
[26] = second compound 3.16 µM, first compound 0.1 µM
[27] = second compound 3.16 µM, first compound 0.316 µM
[28] = second compound 3.16 µM, first compound 1 µM
[29] = second compound 3.16 µM, first compound 3.16 µM
[30] = second compound 3.16 µM, first compound 10 µM
[31] = second compound 10 µM, first compound 0.0316 µM
[32] = second compound 10 µM, first compound 0.1 µM
[33] = second compound 10 µM, first compound 0.316 µM
[34] = second compound 10 µM, first compound 1 µM
[35] = second compound 10 µM, first compound 3.16 µM
[36] = second compound 10 µM, first compound 10 µM
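Also: spheroids exposed to compounds for seven days before readout.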
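For viability, T/C in this document: 100% = DMSO vehicle control viability.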

Structure (SMILES): Nc1ccn(C2OC(CO)C(O)C2(F)F)c(=O)n1 (centres undefined) + COC1C(OC(N)=O)C(O)C(Oc2ccc3c(O)c(NC(=O)c4ccc(O)c(CC=C(C)C)c4)c(=O)oc3c2C)OC1(C)C
- IC50 (second compound 0.0316 µM): < 0.0316 µM
- IC50 (second compound 0.1 µM): < 0.0316 µM
- IC50 (second compound 0.316 µM): < 0.0316 µM
- IC50 (second compound 1 µM): < 0.0316 µM
- IC50 (second compound 3.16 µM): < 0.0316 µM
- IC50 (second compound 10 µM): < 0.0316 µM
- viability, T/C [1]: 25.9%
- viability, T/C [2]: 30%
- viability, T/C [3]: 35.5%
- viability, T/C [4]: 36.7%
- viability, T/C [5]: 28.9%
- viability, T/C [6]: 36.5%
- viability, T/C [7]: 31%
- viability, T/C [8]: 34.8%
- viability, T/C [9]: 47%
- viability, T/C [10]: 39%
- viability, T/C [11]: 38.2%
- viability, T/C [12]: 31.2%
- viability, T/C [13]: 25.5%
- viability, T/C [14]: 35.1%
- viability, T/C [15]: 36.9%
- viability, T/C [16]: 34.3%
- viability, T/C [17]: 40.6%
- viability, T/C [18]: 32.1%
- viability, T/C [19]: 28.8%
- viability, T/C [20]: 37.7%
- viability, T/C [21]: 42.1%
- viability, T/C [22]: 41.7%
- viability, T/C [23]: 31.1%
- viability, T/C [24]: 26.9%
- viability, T/C [25]: 30.6%
- viability, T/C [26]: 32.6%
- viability, T/C [27]: 39.9%
- viability, T/C [28]: 33.5%
- viability, T/C [29]: 35.2%
- viability, T/C [30]: 28%
- viability, T/C [31]: 29.3%
- viability, T/C [32]: 31.3%
- viability, T/C [33]: 34.9%
- viability, T/C [34]: 35%
- viability, T/C [35]: 32.3%
- viability, T/C [36]: 32.1%

Structure (SMILES): O=c1[nH]cc(F)c(=O)[nH]1 + COC1C(OC(N)=O)C(O)C(Oc2ccc3c(O)c(NC(=O)c4ccc(O)c(CC=C(C)C)c4)c(=O)oc3c2C)OC1(C)C
- IC50 (second compound 0.0316 µM): > 10 µM
- IC50 (second compound 0.1 µM): > 10 µM
- IC50 (second compound 0.316 µM): > 10 µM
- IC50 (second compound 1 µM): > 10 µM
- IC50 (second compound 3.16 µM): > 10 µM
- IC50 (second compound 10 µM): > 10 µM
- viability, T/C [1]: 106%
- viability, T/C [2]: 96.4%
- viability, T/C [3]: 104%
- viability, T/C [4]: 105%
- viability, T/C [5]: 76.7%
- viability, T/C [6]: 59.8%
- viability, T/C [7]: 103%
- viability, T/C [8]: 105%
- viability, T/C [9]: 99.4%
- viability, T/C [10]: 94.6%
- viability, T/C [11]: 70.9%
- viability, T/C [12]: 60.9%
- viability, T/C [13]: 88.2%
- viability, T/C [14]: 99.6%
- viability, T/C [15]: 92.2%
- viability, T/C [16]: 93%
- viability, T/C [17]: 84.4%
- viability, T/C [18]: 63.5%
- viability, T/C [19]: 104%
- viability, T/C [20]: 94.2%
- viability, T/C [21]: 117%
- viability, T/C [22]: 80.2%
- viability, T/C [23]: 78%
- viability, T/C [24]: 69%
- viability, T/C [25]: 112%
- viability, T/C [26]: 92.8%
- viability, T/C [27]: 95.5%
- viability, T/C [28]: 91.7%
- viability, T/C [29]: 84.9%
- viability, T/C [30]: 65.4%
- viability, T/C [31]: 95.2%
- viability, T/C [32]: 99.6%
- viability, T/C [33]: 99.7%
- viability, T/C [34]: 85.3%
- viability, T/C [35]: 81.4%
- viability, T/C [36]: 78.2%
